# Values joined by “and” are separate entries in the source; they are usually repeats but may differ in a detail not shown here. Equal values may be shown once.
# Tested on: 817829-284-R-J1-PDC multi-cell spheroid viability
# Test: Anticancer human tumor 817829-284-R-J1-PDC patient-derived colon adenocarcinoma cell line growth inhibition [PI3K]
# Conditions: for viability, T/C: stronger effect = lower value
# Summary of the method: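 Multi-cell spheroids combine tumor cells with HUVEC and human MSCs, treated with targeted agents alone or with inavolisib, alpelisib, duvelisib or copanlisib. Concentrations fall in half-log steps from at or near clinical Cmax, or from 10 microM where Cmax is unknown; viability read-out.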
# [1] = curve of first compound, second compound 0.00316 µM
# [2] = curve of first compound, second compound 0.01 µM
# [3] = curve of first compound, second compound 0.0316 µM
# [4] = curve of first compound, second compound 0.1 µM
# [5] = curve of first compound, second compound 0.316 µM
# [6] = curve of first compound, second compound 1 µM
# [7] = second compound 0.00316 µM, first compound 0.000316 µM
# [8] = second compound 0.00316 µM, first compound 0.001 µM
# [9] = second compound 0.00316 µM, first compound 0.00316 µM
# [10] = second compound 0.00316 µM, first compound 0.01 µM
# [11] = second compound 0.00316 µM, first compound 0.0316 µM
# [12] = second compound 0.00316 µM, first compound 0.1 µM
# [13] = second compound 0.01 µM, first compound 0.000316 µM
# [14] = second compound 0.01 µM, first compound 0.001 µM
# [15] = second compound 0.01 µM, first compound 0.00316 µM
# [16] = second compound 0.01 µM, first compound 0.01 µM
# [17] = second compound 0.01 µM, first compound 0.0316 µM
# [18] = second compound 0.01 µM, first compound 0.1 µM
# [19] = second compound 0.0316 µM, first compound 0.000316 µM
# [20] = second compound 0.0316 µM, first compound 0.001 µM
# [21] = second compound 0.0316 µM, first compound 0.00316 µM
# [22] = second compound 0.0316 µM, first compound 0.01 µM
# [23] = second compound 0.0316 µM, first compound 0.0316 µM
# [24] = second compound 0.0316 µM, first compound 0.1 µM
# [25] = second compound 0.1 µM, first compound 0.000316 µM
# [26] = second compound 0.1 µM, first compound 0.001 µM
# [27] = second compound 0.1 µM, first compound 0.00316 µM
# [28] = second compound 0.1 µM, first compound 0.01 µM
# [29] = second compound 0.1 µM, first compound 0.0316 µM
# [30] = second compound 0.1 µM, first compound 0.1 µM
# [31] = second compound 0.316 µM, first compound 0.000316 µM
# [32] = second compound 0.316 µM, first compound 0.001 µM
# [33] = second compound 0.316 µM, first compound 0.00316 µM
# [34] = second compound 0.316 µM, first compound 0.01 µM
# [35] = second compound 0.316 µM, first compound 0.0316 µM
# [36] = second compound 0.316 µM, first compound 0.1 µM
# [37] = second compound 1 µM, first compound 0.000316 µM
# [38] = second compound 1 µM, first compound 0.001 µM
# [39] = second compound 1 µM, first compound 0.00316 µM
# [40] = second compound 1 µM, first compound 0.01 µM
# [41] = second compound 1 µM, first compound 0.0316 µM
# [42] = second compound 1 µM, first compound 0.1 µM
# 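Also: spheroids exposed to agents for seven days before readout.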
# 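For viability, T/C in this document: percent of vehicle DMSO control viability which is 100%.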
smiles,measurement,setting,value
CC(C)n1nc(-c2ccc3oc(N)nc3c2)c2c(N)ncnc21 + COc1c(OCCCN2CCOCC2)ccc2c3n(c(=NC(=O)c4cnc(N)nc4)nc12)CCN3,IC50,[1],13.6 nM
same,IC50,[2],16.1 nM
same,IC50,[3],5.26 nM
same,IC50,[4],< 0.316 nM
same,IC50,[5],< 0.316 nM
same,IC50,[6],< 0.316 nM
same,"viability, T/C",[7],66.8%
same,"viability, T/C",[8],83.7%
same,"viability, T/C",[9],72.2%
same,"viability, T/C",[10],45.5%
same,"viability, T/C",[11],42.6%
same,"viability, T/C",[12],17.8%
same,"viability, T/C",[13],44%
same,"viability, T/C",[14],83.3%
same,"viability, T/C",[15],67.6%
same,"viability, T/C",[16],70.9%
same,"viability, T/C",[17],26.6%
same,"viability, T/C",[18],14.4%
same,"viability, T/C",[19],78.5%
same,"viability, T/C",[20],72.7%
same,"viability, T/C",[21],45.5%
same,"viability, T/C",[22],46.5%
same,"viability, T/C",[23],37.7%
same,"viability, T/C",[24],19.6%
same,"viability, T/C",[25],31.9%
same,"viability, T/C",[26],31.8%
same,"viability, T/C",[27],38%
same,"viability, T/C",[28],31.1%
same,"viability, T/C",[29],26.9%
same,"viability, T/C",[30],17%
same,"viability, T/C",[31],21.1%
same,"viability, T/C",[32],22.8%
same,"viability, T/C",[33],23.6%
same,"viability, T/C",[34],17.7%
same,"viability, T/C",[35],21.8%
same,"viability, T/C",[36],18.7%
same,"viability, T/C",[37],9.62%
same,"viability, T/C",[38],14%
same,"viability, T/C",[39],9.7%
same,"viability, T/C",[40],10.8%
same,"viability, T/C",[41],8.57%
same,"viability, T/C",[42],6.68%
CC1(C)CCC(Nc2ncc(C(F)(F)F)c(-c3c[nH]c4c(P(C)(C)=O)c(C#N)ccc34)n2)CN1 (configuration not stated),"viability, T/C",compound 0.0316 µM,25.3% and 24.7%
same,"viability, T/C",compound 0.1 µM,25% and 26.2%
same,"viability, T/C",compound 0.316 µM,27.4% and 32.9%
same,"viability, T/C",compound 1 µM,30.6% and 31.8%
same,"viability, T/C",compound 3.16 µM,32.7% and 38.6%
same,"viability, T/C",compound 10 µM,0.65% and 1.29%
same,IC50,curve of compound,< 31.6 nM
CCN1CCN(Cc2ccc(Nc3ncc(F)c(-c4cc(F)c5nc(C)n(C(C)C)c5c4)n3)nc2)CC1,"viability, T/C",compound 0.00316 µM,81.3% and 60.8%
same,"viability, T/C",compound 0.01 µM,103% and 82.2%
same,"viability, T/C",compound 0.0316 µM,61.9% and 73.5%
same,"viability, T/C",compound 0.1 µM,68.2% and 59.2%
same,"viability, T/C",compound 0.316 µM,55.8% and 49.5%
same,"viability, T/C",compound 1 µM,58% and 51%
same,IC50,curve of compound,> 1000 nM
Cn1ncnc1[C@H]1c2n[nH]c(=O)c3cc(F)cc(c23)N[C@@H]1c1ccc(F)cc1 + CC(Nc1ccc2c(c1)OCCn1cc(N3C(=O)OCC3C(F)F)nc1-2)C(N)=O,IC50,[1],> 100 nM
same,IC50,[2],75 nM
same,IC50,[3],10 nM
same,IC50,[4],47.7 nM
same,IC50,[5],12.1 nM
same,IC50,[6],< 0.316 nM
same,"viability, T/C",[7],95.4%
same,"viability, T/C",[8],58.2%
same,"viability, T/C",[9],104%
same,"viability, T/C",[10],35%
same,"viability, T/C",[11],71.1%
same,"viability, T/C",[12],53%
same,"viability, T/C",[13],75.1%
same,"viability, T/C",[14],66%
same,"viability, T/C",[15],75%
same,"viability, T/C",[16],68.3%
same,"viability, T/C",[17],70.2%
same,"viability, T/C",[18],43.3%
same,"viability, T/C",[19],81.7%
same,"viability, T/C",[20],101%
same,"viability, T/C",[21],46.9%
same,"viability, T/C",[22],65%
same,"viability, T/C",[23],53.5%
same,"viability, T/C",[24],43.6%
same,"viability, T/C",[25],65.6%
same,"viability, T/C",[26],52.2%
same,"viability, T/C",[27],60.3%
same,"viability, T/C",[28],70.9%
same,"viability, T/C",[29],43%
same,"viability, T/C",[30],46.6%
same,"viability, T/C",[31],40.1%
same,"viability, T/C",[32],65.8%
same,"viability, T/C",[33],61.2%
same,"viability, T/C",[34],39.4%
same,"viability, T/C",[35],49.8%
same,"viability, T/C",[36],33.3%
same,"viability, T/C",[37],31.9%
same,"viability, T/C",[38],60.9%
same,"viability, T/C",[39],43.1%
same,"viability, T/C",[40],42.3%
same,"viability, T/C",[41],36.7%
same,"viability, T/C",[42],20.8%
CCCS(=O)(=O)Nc1ccc(F)c(C(=O)c2c[nH]c3ncc(-c4ccc(Cl)cc4)cc23)c1F + CC(Nc1ccc2c(c1)OCCn1cc(N3C(=O)OCC3C(F)F)nc1-2)C(N)=O,IC50,[1],2230 nM
same,IC50,[2],1680 nM
same,IC50,[3],3740 nM
same,IC50,[4],< 31.6 nM
same,IC50,[5],< 31.6 nM
same,IC50,[6],< 31.6 nM
same,"viability, T/C",[11],67%
same,"viability, T/C",[12],57.9%
same,"viability, T/C","second compound 0.00316 µM, first compound 0.316 µM",61.3%
same,"viability, T/C","second compound 0.00316 µM, first compound 1 µM",51.6%
same,"viability, T/C","second compound 0.00316 µM, first compound 3.16 µM",49.6%
same,"viability, T/C","second compound 0.00316 µM, first compound 10 µM",3.89%
same,"viability, T/C",[17],95.3%
same,"viability, T/C",[18],56.5%
same,"viability, T/C","second compound 0.01 µM, first compound 0.316 µM",67.8%
same,"viability, T/C","second compound 0.01 µM, first compound 1 µM",56%
same,"viability, T/C","second compound 0.01 µM, first compound 3.16 µM",49.7%
same,"viability, T/C","second compound 0.01 µM, first compound 10 µM",4.85%
same,"viability, T/C",[23],69.3%
same,"viability, T/C",[24],52.4%
same,"viability, T/C","second compound 0.0316 µM, first compound 0.316 µM",69.7%
same,"viability, T/C","second compound 0.0316 µM, first compound 1 µM",32.1%
same,"viability, T/C","second compound 0.0316 µM, first compound 3.16 µM",65.4%
same,"viability, T/C","second compound 0.0316 µM, first compound 10 µM",4.59%
same,"viability, T/C",[29],38.9%
same,"viability, T/C",[30],53%
same,"viability, T/C","second compound 0.1 µM, first compound 0.316 µM",47.8%
same,"viability, T/C","second compound 0.1 µM, first compound 1 µM",45.9%
same,"viability, T/C","second compound 0.1 µM, first compound 3.16 µM",38.5%
same,"viability, T/C","second compound 0.1 µM, first compound 10 µM",5.88%
same,"viability, T/C",[35],43.5%
same,"viability, T/C",[36],57.1%
same,"viability, T/C","second compound 0.316 µM, first compound 0.316 µM",55%
same,"viability, T/C","second compound 0.316 µM, first compound 1 µM",43.1%
same,"viability, T/C","second compound 0.316 µM, first compound 3.16 µM",47.3%
same,"viability, T/C","second compound 0.316 µM, first compound 10 µM",6.23%
same,"viability, T/C",[41],55.9%
same,"viability, T/C",[42],44%
same,"viability, T/C","second compound 1 µM, first compound 0.316 µM",46.9%
same,"viability, T/C","second compound 1 µM, first compound 1 µM",34%
same,"viability, T/C","second compound 1 µM, first compound 3.16 µM",50.1%
same,"viability, T/C","second compound 1 µM, first compound 10 µM",6.69%
CC(=O)c1c(C)c2cnc(Nc3ccc(N4CCNCC4)cn3)nc2n(C2CCCC2)c1=O + CC(Nc1ccc2c(c1)OCCn1cc(N3C(=O)OCC3C(F)F)nc1-2)C(N)=O,IC50,[1],69.7 nM
same,IC50,[2],76.1 nM
same,IC50,[3],33.9 nM
same,IC50,[4],28.7 nM
same,IC50,[5],13.7 nM
same,IC50,[6],8.65 nM
same,"viability, T/C",[7],79.4%
same,"viability, T/C",[8],78.4%
same,"viability, T/C",[9],74.4%
same,"viability, T/C",[10],73.2%
same,"viability, T/C",[11],142%
same,"viability, T/C",[12],31.9%
same,"viability, T/C",[13],124%
same,"viability, T/C",[14],74.5%
same,"viability, T/C",[15],107%
same,"viability, T/C",[16],56.3%
same,"viability, T/C",[17],58.8%
same,"viability, T/C",[18],48.4%
same,"viability, T/C",[19],73.5%
same,"viability, T/C",[20],80%
same,"viability, T/C",[21],84.3%
same,"viability, T/C",[22],62.5%
same,"viability, T/C",[23],53.4%
same,"viability, T/C",[24],31.4%
same,"viability, T/C",[25],85.1%
same,"viability, T/C",[26],86%
same,"viability, T/C",[27],60.1%
same,"viability, T/C",[28],105%
same,"viability, T/C",[29],46.8%
same,"viability, T/C",[30],37%
same,"viability, T/C",[31],51.7%
same,"viability, T/C",[32],52.2%
same,"viability, T/C",[33],69.7%
same,"viability, T/C",[34],52.4%
same,"viability, T/C",[35],38.3%
same,"viability, T/C",[36],23.3%
same,"viability, T/C",[37],68.8%
same,"viability, T/C",[38],68.7%
same,"viability, T/C",[39],53.5%
same,"viability, T/C",[40],55.6%
same,"viability, T/C",[41],29.7%
same,"viability, T/C",[42],27.2%

# Reference: PubChem BioAssay AID1963969 (Molecular Pharmacology Branch, DTP, NCI, 2024)
